Consider three compounds from PMC5342071, “A first generation inhibitor of human Greatwall kinase, enabled by structural and functional characterisation of a minimal kinase domain construct” (Oncotarget, 2016).

What all share (assay type): biochemical
The target of one assay is T1, hGWL-KinDom (Homo sapiens, UniProt Q96GX5).
T1 construct: that encoded amino acids (aa) 1-194 + ‘RTFC’ + 740-879 of hGWL; GST (rhinovirus 3C-protease cleavable) (N, cleaved yes); made in house; host or cells: E. coli Rosetta2(DE3)
T1 sequence (Q96GX5 with tags, fused parts or gaps limits assumed): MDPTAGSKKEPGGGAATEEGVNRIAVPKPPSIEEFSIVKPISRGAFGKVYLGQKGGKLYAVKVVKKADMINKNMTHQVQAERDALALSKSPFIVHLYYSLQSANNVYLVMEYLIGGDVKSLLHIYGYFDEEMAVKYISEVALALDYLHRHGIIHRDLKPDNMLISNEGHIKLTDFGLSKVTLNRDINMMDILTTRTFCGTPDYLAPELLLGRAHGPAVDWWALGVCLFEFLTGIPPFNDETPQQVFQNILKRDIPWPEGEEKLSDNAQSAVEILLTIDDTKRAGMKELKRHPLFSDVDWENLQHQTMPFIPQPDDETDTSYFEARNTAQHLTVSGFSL
The assay is described as follows: Kinase-Glo Max luminescence kinase assay with hGWL-KinDom. To be noted: Kinase-Glo Max assay; read-out: IC50 GWL-KinDom. How it is done:
Non-radioactive kinase assays were set-up by combining hGWL-KinDom (305 µM in 20 mM HEPES pH 7.5, FL 500 mM NaCl, and 0.5 mM TCEP) diluted to desired concentration or immunoprecipitated hGWL on beads with ultra-pure ATP [Promega, 25 µM] and His-tagged substrate  α-endosulfine (ENSA, 2 µM) in kinase assay buffer (50 mM Tris-HCl pH 7.5, 0.5 mM EGTA, 150 mM NaCl, 0.1% v/v NP-40 and 15 mM MgCl2). The reaction was allowed to proceed for 30 min at 37 °C or another indicated time-point after which it was stopped with either SDS loading buffer (5X buffer, including 0.25 % w/v Bromophenol blue, 0.5 M DTT (dithiothreitol), 50% v/v Glycerol, 10% v/v SDS (sodium dodecyl sulphate), and 0.25M Tris-HCl pH 6.8) or Kinase-Glo Max reagent [Promega]. Recombinant His-tagged ENSA was purified using Ni-NTA agarose [QIAGEN] from BL21 E. coli following the manufacturer’s recommended protocol. […]
(§1) All kinase assays were repeated thrice per assay condition and each point on the concentration-dependent response curves represents the mean ± […]
After stopping the above non-radioactive kinase assay with 1 volume of Kinase-Glo Max reagent the mixture was allowed to incubate for a further 15 min. To detect consumption of ATP, samples were transferred to white, flat-bottom 96-well plates [Thermo Fisher Scientific, Loughborough, UK] and luminescence was detected using a POLARstar Omega micro-plate reader [BMG Labtech GmbH, Ortenberg, Germany]. As this assay measures ATP, activity or ATP turnover was measured as the -ΔRLU. […]
A general note: Kinase-Glo measures the ATP left after a reaction by luminescence.

In the next assay the target is T2, CDK2 (Homo sapiens, UniProt P24941).
T2 construct: made in house; host or cells: E. coli
Briefly: CDK2 kinase assay, Histone H1 substrate, Kinase-Glo Max. Particulars: for IC50: ± S.D. How it is done:
PKA, ROCK1 and CDK2 kinase assays
PKA and ROCK1 assays (Promega) were carried out according to the manufacturer’s protocols and CDK2 assays were carried out with Histone H1 as substrate (1 µg per 20 µl reaction) according to our Kinase-Glo Max assay. CDK2 was expressed and purified from E. coli as previously described (10). […]
Data were normalised against the AllStars negative control siRNA treated cells and values obtained from 3 – 5 biological replicates were reported as the mean ± 1 S.D.

The target in the next assay is T3, hGWL^FL (Homo sapiens, UniProt Q96GX5).
T3 construct: N-terminally FLAG-tagged full-length human GWL; made in house; host or cells: HEK293T cells, transfected and nocodazole-arrested; protein captured on anti-Flag M2 beads
T3 sequence (Q96GX5 1-879): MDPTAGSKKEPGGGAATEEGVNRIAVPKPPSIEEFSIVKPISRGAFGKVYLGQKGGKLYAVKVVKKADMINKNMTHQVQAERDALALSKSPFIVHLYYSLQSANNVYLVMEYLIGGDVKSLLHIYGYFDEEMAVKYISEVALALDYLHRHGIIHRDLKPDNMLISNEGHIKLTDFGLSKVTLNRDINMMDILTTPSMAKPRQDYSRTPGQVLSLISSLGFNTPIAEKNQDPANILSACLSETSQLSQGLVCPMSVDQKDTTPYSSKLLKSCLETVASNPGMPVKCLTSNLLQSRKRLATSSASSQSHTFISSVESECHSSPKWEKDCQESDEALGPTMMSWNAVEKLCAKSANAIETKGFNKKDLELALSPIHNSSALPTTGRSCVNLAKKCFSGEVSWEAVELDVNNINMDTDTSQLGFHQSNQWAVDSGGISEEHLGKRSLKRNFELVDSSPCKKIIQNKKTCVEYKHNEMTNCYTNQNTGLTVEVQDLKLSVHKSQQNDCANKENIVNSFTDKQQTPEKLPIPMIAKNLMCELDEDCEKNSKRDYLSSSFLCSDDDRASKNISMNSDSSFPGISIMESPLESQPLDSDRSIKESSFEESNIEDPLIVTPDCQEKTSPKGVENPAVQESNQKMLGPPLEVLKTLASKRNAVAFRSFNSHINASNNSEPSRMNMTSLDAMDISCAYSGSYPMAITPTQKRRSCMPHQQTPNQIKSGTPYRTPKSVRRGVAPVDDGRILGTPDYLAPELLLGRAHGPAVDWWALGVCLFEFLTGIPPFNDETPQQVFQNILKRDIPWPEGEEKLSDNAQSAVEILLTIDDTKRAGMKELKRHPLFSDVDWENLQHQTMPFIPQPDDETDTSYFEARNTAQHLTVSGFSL
The assay is described as follows: Immunoprecipitation kinase assay with Flag-tagged hGWL^FL (p-ENSA western). Particulars: for IC50: immunoprecipitated Flag-tagged hGWL^FL, read-out: IC50 GWL^FL. How it is done:
500 mM NaCl, and 0.5 mM TCEP) diluted to desired concentration or immunoprecipitated hGWL on beads with ultra-pure ATP [Promega, 25 µM] and His-tagged substrate  α-endosulfine (ENSA, 2 µM) in kinase assay buffer (50 mM Tris-HCl pH 7.5, 0.5 mM EGTA, 150 mM NaCl, 0.1% v/v NP-40 and 15 mM MgCl2). The […]
(dithiothreitol), 50% v/v Glycerol, 10% v/v SDS (sodium dodecyl sulphate), and 0.25M Tris-HCl pH 6.8) or Kinase-Glo Max reagent [Promega]. Recombinant His-tagged ENSA was purified using Ni-NTA agarose [QIAGEN] from BL21 E. coli following the manufacturer’s recommended protocol. […]
as §1
Immunoprecipitation Kinase Assay
HEK293T cells were transfected with 10 µg of plasmid (Flag-tagged hGWLFL or GFP; pcDNA3-EGFP, Addgene, Cambridge MA, USA) using CaCl2. […]
incubated for a further 16–18 h. Cells were collected and washed in PBS-A followed by lysis on ice for 20 min in 1mL IP buffer (50 mM Tris-HCl pH 7.5, 150 mM NaCl, 10% v/v glycerol, 0.5% v/v NP-40, 1 mM EDTA supplemented with protease and phosphatase inhibitors (Complete and PhosStop; Roche Diagnostics)). Samples were then sonicated and clarified by centrifugation at 13,000 rpm for 30 min at 4°C. To capture Flag-tagged […]
hGWLFL, 100 µl of lysate was diluted 5-fold with IP buffer and combined with 3 µl anti-Flag M2 magnetic Dynabeads [Sigma-Aldrich] overnight at 4 °C. After sequential washes with IP buffer, 1:1 mix of IP and kinase assay buffers and a final wash in kinase assay buffer, the beads were then used in the kinase assay. The reaction was stopped by adding SDS loading buffer and analysed by western blot: p-ENSA and GWL levels were detected using the anti-phospho(Ser67)-ENSA and anti-MASTL(GWL, Prestige) antibodies. Activity was measured as the p-ENSA/GWL ratio and % kinase activity was normalised to the DMSO control. All kinases assays were repeated thrice per assay condition and each point on the concentration-dependent response curves represents the mean ± 1 S.D. […]

Where only a bound is given, the exact number is not on record here.

Usually IC50 stands for the concentration at which inhibition is half-maximal. As to `CCN(CC)Cc1ccc(Nc2nccc(-c3cnn4ncccc34)n2)cc1` [GRI-4], the IC50 was found to be 3.22 ± 0.31 µM on hGWL-KinDom, 0.089 ± 0.003 µM on CDK2 and 2.5 µM at hGWL^FL.
As a reminder, the EC50 is the concentration giving half of the maximal effect. With `Clc1ccc(Nc2cccc(-c3cn[nH]c3)c2)cc1` [GKI-1, N-(4-chlorophenyl)-3-(1H-pyrazol-4-yl)aniline], the IC50 at hGWL-KinDom is 2.5 µM; against CDK2, above 100 µM. In addition, the “inhibitory activity towards CDK2” value at CDK2 (concentrations up to 100 μM) is on record as “no observable inhibitory activity”. In addition, the “inhibitory ratio (IC50 GWL^FL/IC50 GWL-KinDom)” value at hGWL^FL (for GKI-1: EC50 hGWL^FL vs IC50 hGWL-KinDom) is ~ 2. In addition, the 50% effective concentration (EC50) on hGWL^FL (immunoprecipitated hGWL^FL, read-out: EC50 GWL^FL) came to 4.9 µM.
For `CN(C)CC#Cc1cccc(C(=O)c2cnn(-c3ccc(F)cc3)c2N)c1` [GRI-3], the concentration for half-maximal inhibition (IC50) came to 109 ± 13.7 µM on hGWL-KinDom and 66 µM at hGWL^FL.
